Measurements taken from paper PMC8693235, “Biocatalytic kinetic resolution of D,L-pantolactone by using a novel recombinant D-lactonase” (RSC Advances, 2020).

Molecular target: T1, TSDL (D-lactonase) (Thermothielavioides terrestris, UniProt G2R1T8)
T1 construct: gene THITE_2046186; 421 aa, about 45 kDa on SDS-PAGE; pET-28a(+) NcoI/XhoI, E. coli BL21(DE3), intracellular; used as whole cells
T1 sequence (G2R1T8 1-421): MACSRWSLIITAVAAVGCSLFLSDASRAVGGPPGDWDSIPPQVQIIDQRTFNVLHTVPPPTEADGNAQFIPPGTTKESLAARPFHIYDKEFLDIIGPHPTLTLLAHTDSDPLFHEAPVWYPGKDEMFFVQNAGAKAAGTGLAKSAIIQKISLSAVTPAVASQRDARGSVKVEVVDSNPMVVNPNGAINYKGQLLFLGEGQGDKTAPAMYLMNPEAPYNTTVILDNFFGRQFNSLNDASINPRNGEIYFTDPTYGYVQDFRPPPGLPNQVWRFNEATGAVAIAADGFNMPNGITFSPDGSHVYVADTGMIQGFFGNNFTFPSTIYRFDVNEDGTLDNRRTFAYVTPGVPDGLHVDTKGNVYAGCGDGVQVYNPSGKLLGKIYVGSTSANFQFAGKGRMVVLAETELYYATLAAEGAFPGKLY
Experiment: whole-cell hydrolysis of D,L-pantolactone, HPLC and chiral HPLC
Assay type: cell-based
Conditions: racemic D,L-pantolactone; recombinant E. coli (TSDL) whole cells; pH 7.0, 30 °C; 5% NH3·H2O for pH control

CC1(C)COC(=O)[C@@H]1O [D-PL, D-pantolactone]
whole-cell hydrolysis of D,L-pantolactone, HPLC and chiral HPLC: The recombinant TSDL exhibited high hydrolysis activity and enantioselectivity toward D-PL
